Each block holds one compound with its values, some of them ahead of it.
Assays:
Assay type in all cases: cell-based
[1] = biological target: T1, EGFR (Homo sapiens, UniProt P00533); assay: pEGFR and tEGFR levels in EGF-stimulated HT-29 colon cancer cells by laser scanning cytometry; conditions: HT-29 cells; for pEGFR fold change in level / pEGFR/tEGFR fold change in level / tEGFR fold change in level: 0% FCS, EGF 100 ng/ml for 5 min
T1 construct: host or cells: HT-29 colon cancer cells
Procedure: We sought to test RTK response to RTKI's and thus measured both phospho-RTK and total RTK using a known RTKI challenge reagent. AEE788 (NOVARTIS®) is an oral multiple-receptor tyrosine kinase inhibitor of EGFR, human epidermal growth factor receptor 2 (HER-2), and vascular endothelial growth factor receptor (VEGFR). Thus, we measured EGFR response to AEE788 using antibody quantitation of the two parameters. HT-29 colon cancer cells were treated with increasing doses of AEE788, (0, 4, 20, 100, and 1000 nM) for 4 hours in serum-free media followed by EGF stimulation at 100 ng/ml for 5 minutes. Cells were then fixed and stained with anti-phospho-EGFR (P-EGFR-Y1173) antibody followed by a secondary antibody conjugated with a fluorescent probe. The mean fluorescence index (MFI) of pEGFR was quantified by laser scanning cytometry (LSC) […] and the results are shown in Table 2.

[2] = biological target: T2, PDGFR-β (Homo sapiens, UniProt P09619); assay: pPDGFR-β/tPDGFR-β ratio in PDGF-stimulated HUVEC cells; design: endogenous in cells; host or cells: HUVEC; conditions: for HUVEC pPDGFR-β/tPDGFR-β fold ratio change: PDGF 50 ng/ml 10 min
T2 sequence (P09619 33-1106): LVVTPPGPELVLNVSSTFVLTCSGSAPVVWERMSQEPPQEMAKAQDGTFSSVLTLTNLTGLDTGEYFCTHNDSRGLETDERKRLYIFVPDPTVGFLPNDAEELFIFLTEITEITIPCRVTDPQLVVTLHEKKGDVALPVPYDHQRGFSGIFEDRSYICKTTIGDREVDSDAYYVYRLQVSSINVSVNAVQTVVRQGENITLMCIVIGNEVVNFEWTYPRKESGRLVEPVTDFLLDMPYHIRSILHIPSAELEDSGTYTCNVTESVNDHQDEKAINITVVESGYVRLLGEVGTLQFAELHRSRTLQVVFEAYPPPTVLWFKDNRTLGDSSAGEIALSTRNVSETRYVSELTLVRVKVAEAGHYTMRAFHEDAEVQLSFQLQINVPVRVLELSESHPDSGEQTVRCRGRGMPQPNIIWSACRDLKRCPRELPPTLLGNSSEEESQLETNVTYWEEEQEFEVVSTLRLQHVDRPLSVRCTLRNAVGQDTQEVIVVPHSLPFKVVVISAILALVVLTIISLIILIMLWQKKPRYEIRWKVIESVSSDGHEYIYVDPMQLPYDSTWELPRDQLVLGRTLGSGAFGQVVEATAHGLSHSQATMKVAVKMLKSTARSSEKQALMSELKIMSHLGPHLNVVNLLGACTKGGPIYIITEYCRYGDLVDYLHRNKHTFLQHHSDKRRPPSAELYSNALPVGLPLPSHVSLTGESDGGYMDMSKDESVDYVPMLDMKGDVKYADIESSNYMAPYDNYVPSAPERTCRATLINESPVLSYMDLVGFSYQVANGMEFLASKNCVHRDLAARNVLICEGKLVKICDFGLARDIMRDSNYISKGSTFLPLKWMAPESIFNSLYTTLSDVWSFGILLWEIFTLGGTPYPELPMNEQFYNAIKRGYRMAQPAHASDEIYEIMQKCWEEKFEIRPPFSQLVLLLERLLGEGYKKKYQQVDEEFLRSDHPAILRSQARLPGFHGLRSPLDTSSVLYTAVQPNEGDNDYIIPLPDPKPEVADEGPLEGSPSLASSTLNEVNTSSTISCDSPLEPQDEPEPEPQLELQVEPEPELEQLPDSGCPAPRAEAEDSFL
From the text: (§1) Thus, we repeated the experiment using additional RTKs and RTKIs. We used a known RTKI challenge reagent SU11248, which blocks phosphorylation of several kinases, including VEGFR2 (KDR), stem cell tyrosine kinase receptor (KIT), platelet-derived growth factor receptor (PDGFR), and fms-related tyrosine kinase 3 (FLT3).

[3] = biological target: T2, PDGFR-β; assay: pPDGFR-β/tPDGFR-β ratio in PDGF-stimulated GIST cells; design: endogenous in cells; host or cells: GIST (gastrointestinal stromal tumor) cells; conditions: for GIST pPDGFR-β/tPDGFR-β fold ratio change: PDGF 50 ng/ml 10 min
From the text: as §1

T1 sequence (P00533 25-1210): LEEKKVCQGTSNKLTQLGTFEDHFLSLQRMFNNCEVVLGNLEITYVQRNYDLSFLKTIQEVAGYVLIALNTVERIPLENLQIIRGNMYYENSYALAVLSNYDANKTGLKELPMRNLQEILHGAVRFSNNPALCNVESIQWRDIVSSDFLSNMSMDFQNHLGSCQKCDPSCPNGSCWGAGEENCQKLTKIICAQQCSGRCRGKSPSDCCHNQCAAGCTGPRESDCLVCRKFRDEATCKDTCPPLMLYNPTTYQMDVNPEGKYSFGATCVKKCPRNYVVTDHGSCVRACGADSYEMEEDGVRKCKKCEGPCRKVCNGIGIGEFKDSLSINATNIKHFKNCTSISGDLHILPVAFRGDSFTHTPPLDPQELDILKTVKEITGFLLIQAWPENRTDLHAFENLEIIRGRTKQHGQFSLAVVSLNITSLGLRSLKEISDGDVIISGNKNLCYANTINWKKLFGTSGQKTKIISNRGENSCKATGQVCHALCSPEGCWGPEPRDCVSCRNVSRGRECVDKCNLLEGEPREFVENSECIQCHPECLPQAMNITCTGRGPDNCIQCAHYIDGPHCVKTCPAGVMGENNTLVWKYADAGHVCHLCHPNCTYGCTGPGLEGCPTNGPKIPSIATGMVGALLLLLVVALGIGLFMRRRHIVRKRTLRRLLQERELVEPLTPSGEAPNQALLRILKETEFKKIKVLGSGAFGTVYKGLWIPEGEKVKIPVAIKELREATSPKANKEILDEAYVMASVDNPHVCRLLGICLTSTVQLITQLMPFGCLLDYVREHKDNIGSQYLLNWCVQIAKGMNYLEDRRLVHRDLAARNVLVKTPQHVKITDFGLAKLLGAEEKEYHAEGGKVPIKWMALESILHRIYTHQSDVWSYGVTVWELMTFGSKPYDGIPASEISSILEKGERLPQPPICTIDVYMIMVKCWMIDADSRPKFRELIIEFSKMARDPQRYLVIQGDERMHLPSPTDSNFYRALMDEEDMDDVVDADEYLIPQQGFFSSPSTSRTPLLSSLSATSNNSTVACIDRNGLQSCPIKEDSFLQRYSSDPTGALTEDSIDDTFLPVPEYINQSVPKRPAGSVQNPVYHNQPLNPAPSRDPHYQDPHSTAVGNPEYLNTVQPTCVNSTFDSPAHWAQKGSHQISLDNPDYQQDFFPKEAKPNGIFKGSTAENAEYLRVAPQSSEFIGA

pEGFR fold change in level ([1]; 4 nM for 4 h): 1.36 fold
pEGFR/tEGFR fold change in level ([1]; 4 nM for 4 h): 0.65 fold
tEGFR fold change in level ([1]; 4 nM for 4 h): 2.11 fold
pEGFR fold change in level ([1]; 20 nM for 4 h): 0.97 fold
pEGFR/tEGFR fold change in level ([1]; 20 nM for 4 h): 0.21 fold
tEGFR fold change in level ([1]; 20 nM for 4 h): 4.61 fold
pEGFR fold change in level ([1]; 100 nM for 4 h): 0.70 fold
pEGFR/tEGFR fold change in level ([1]; 100 nM for 4 h): 0.16 fold
tEGFR fold change in level ([1]; 100 nM for 4 h): 4.37 fold
pEGFR fold change in level ([1]; 1000 nM for 4 h): 0.52 fold
pEGFR/tEGFR fold change in level ([1]; 1000 nM for 4 h): 0.15 fold
tEGFR fold change in level ([1]; 1000 nM for 4 h): 3.53 fold
total EGFR levels, in words ([1]; 4-1000 nM): up-regulated total EGFR levels
Compound: CCN1CCN(Cc2ccc(-c3cc4c(N[C@H](C)c5ccccc5)ncnc4[nH]3)cc2)CC1 [AEE788]
EGF-induced phosphorylation of EGFR (pEGFR), in words ([1]; 4-1000 nM): inhibited EGF-induced phosphorylation of its receptor (pEGFR) in a dose-dependent manner

pPDGFR-β/tPDGFR-β ratio, in words [2]: decreased in a dose-dependent manner
HUVEC pPDGFR-β/tPDGFR-β fold ratio change ([2]; 0.01 μM): 2.42 ± 0.36 fold
HUVEC pPDGFR-β/tPDGFR-β fold ratio change ([2]; 0.1 μM): 1.48 ± 0.15 fold
HUVEC pPDGFR-β/tPDGFR-β fold ratio change ([2]; 1 μM): 1.40 ± 0.23 fold
pPDGFR-β/tPDGFR-β ratio, in words [3]: decreased in a dose-dependent manner
GIST pPDGFR-β/tPDGFR-β fold ratio change ([3]; 0.01 μM): 0.97 ± 0.05 fold
GIST pPDGFR-β/tPDGFR-β fold ratio change ([3]; 0.1 μM): 0.00 ± 0.59 fold
GIST pPDGFR-β/tPDGFR-β fold ratio change ([3]; 1 μM): 0.00 ± 0.08 fold
Compound: CCN(CC)CCNC(=O)c1c(C)[nH]c(/C=C2\C(=O)Nc3ccc(F)cc32)c1C [SU11248]
